# Assays:
# [1] = target: T1, human recombinant Dipeptidyl peptidase IV enzyme (hrDPP IV) (Homo sapiens, UniProt P27487); assay: DPP IV assay, cleavage of H-Gly-Pro-AMC by human recombinant DPP-IV enzyme; format: biochemical; conditions: for inhibition at 0.3 µM: 300 nM compound concentration
# T1 construct: purchased R&D systems
# Protocol: DPP IV activity was determined by the cleavage rate of 7-amino 4-methylcoumarin (AMC) from the substrate H-Gly-Pro-AMC. In brief, the assay was conducted by adding 3 ng of human recombinant Dipeptidyl peptidase IV enzyme (hrDPP IV, available commercially from R&D systems) in 70 μL of the assay buffer (25 mM HEPES, 140 mM NaCl and 1% BSA, pH 7.8) to a 96 well black flat bottom microtitre plate. Test compounds were added as 10 μL additions to all wells except blank and total activity wells. After incubation of test substance with enzyme for 60 minutes at room temperature, 10 μL of 100 μM substrate H-Gly-Pro-AMC was added. After mixing, the plate was left for 20 minutes at room temperature. Then the reaction was terminated by addition of 10 μL of 25% glacial acetic acid. Fluorescence was measured using Spectra Max Gemini XS (Molecular Devices, USA) at an excitation filter of 360 nm and emission filter of 460 nm.
# Test compounds dissolved in DMSO were diluted with assay buffer at different concentrations and tested in duplicates. Percentage inhibition was calculated with respect to total activity. IC50 value was calculated using Prism Software.
# T1 sequence (P27487 whole entry): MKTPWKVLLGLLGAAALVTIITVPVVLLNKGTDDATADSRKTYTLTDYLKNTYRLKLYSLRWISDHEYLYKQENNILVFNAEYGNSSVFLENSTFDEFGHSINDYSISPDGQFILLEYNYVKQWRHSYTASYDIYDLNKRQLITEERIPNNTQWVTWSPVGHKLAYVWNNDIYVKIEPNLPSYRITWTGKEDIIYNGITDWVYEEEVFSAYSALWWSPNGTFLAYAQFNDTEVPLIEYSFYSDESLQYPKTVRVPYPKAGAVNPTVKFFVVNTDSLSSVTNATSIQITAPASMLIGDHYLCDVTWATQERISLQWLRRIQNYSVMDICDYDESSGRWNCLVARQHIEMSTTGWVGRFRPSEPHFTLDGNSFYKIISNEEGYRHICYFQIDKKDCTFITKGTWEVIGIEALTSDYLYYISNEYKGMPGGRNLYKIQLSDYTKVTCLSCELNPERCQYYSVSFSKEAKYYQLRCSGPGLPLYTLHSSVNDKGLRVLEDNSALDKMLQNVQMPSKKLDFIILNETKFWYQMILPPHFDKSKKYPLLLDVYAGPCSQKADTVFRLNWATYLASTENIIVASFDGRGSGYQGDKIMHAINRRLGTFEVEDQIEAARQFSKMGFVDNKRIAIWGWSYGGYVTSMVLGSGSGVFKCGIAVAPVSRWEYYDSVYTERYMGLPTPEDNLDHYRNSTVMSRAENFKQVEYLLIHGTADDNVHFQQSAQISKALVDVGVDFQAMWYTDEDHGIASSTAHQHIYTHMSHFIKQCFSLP
SMILES,IC50 [1] [nM],melting point [°C],inhibition at 0.3 µM [1] [%]
"CC1(C)[C@@H](Cn2nccn2)CC[C@@]1(C)NCC(=O)N1C[C@@H](F)C[C@H]1C#N [Example 10, (2S,4S)-1-(2-((1R,3S)-3-((2H-1,2,3-Triazol-2-yl)methyl)-1,2,2-trimethylcyclopentylamino)acetyl)-4-fluoropyrrolidine-2-carbonitrile]",215,84 to 87,–
"CN1C[C@]2(C)CC[C@](NCC(=O)N3C[C@@H](F)C[C@H]3C#N)(C1)C2(C)C [Example 76, (2S,4S)-4-Fluoro-1-(2-((1R,5R)-3,5,8,8-tetramethyl-3-azabicyclo[3.2.1]octan-1-ylamino)acetyl)pyrrolidine-2-carbonitrile]",–,122 to 126,4.25
"CC1(C)[C@H](Cc2noc(C3CCCCC3)n2)CC[C@]1(C)NCC(=O)N1C[C@@H](F)C[C@H]1C#N [Example 59, (2S,4S)-1-(2-((1S,3S)-3-((5-Cyclohexyl-1,2,4-oxadiazol-3-yl)methyl)-1,2,2-trimethylcyclopentylamino)acetyl)-4-fluoropyrrolidine-2-carbonitrile]",–,152 to 153,67.7
"CC1(C)[C@@H](CS(=O)(=O)c2ccc(S(C)(=O)=O)cc2)CC[C@@]1(C)NCC(=O)N1C[C@@H](F)C[C@H]1C#N [Example 42, (2S,4S)-4-Fluoro-1-(2-((1R,3S)-1,2,2-trimethyl-3-((4-(methylsulfonyl)phenylsulfonyl)methyl)cyclopentylamino)acetyl)pyrrolidine-2-carbonitrile]",91.3,220 to 224,–
"CC1(C)[C@H](CS(=O)(=O)c2ccc(S(C)(=O)=O)cc2)CC[C@]1(C)NCC(=O)N1CCC[C@H]1C#N [Example 46, (S)-1-(2-((1S,3R)-1,2,2-Trimethyl-3-((4-(methylsulfonyl)phenylsulfonyl)methyl)cyclopentylamino)acetyl)pyrrolidine-2-carbonitrile]",–,158 to 160,40.9
"CC1(C)[C@H](Cn2cc(CO)nn2)CC[C@]1(C)NCC(=O)N1C[C@@H](F)C[C@H]1C#N [Example 16, (2S,4S)-4-Fluoro-1-(2-((1S,3R)-3-((4-(hydroxymethyl)-1H-1,2,3-triazol-1-yl)methyl)-1,2,2-trimethylcyclopentylamino)acetyl)pyrrolidine-2-carbonitrile]",32.5,76 to 78,–
"CC1(C)[C@H](Cn2nccn2)CC[C@]1(C)NCC(=O)N1C[C@@H](F)C[C@H]1C#N [Example 12, (2S,4S)-1-(2-((1S,3R)-3-((2H-1,2,3-Triazol-2-yl)methyl)-1,2,2-trimethylcyclopentylamino)acetyl)-4-fluoropyrrolidine-2-carbonitrile]",37.2 ± 3.67,142 to 144,–
"CC1(C)[C@H](Cc2noc(-c3ccc(F)cc3)n2)CC[C@]1(C)NCC(=O)N1C[C@@H](F)C[C@H]1C#N [Example 62, (2S,4S)-4-Fluoro-1-(2-((1S,3S)-3-((5-(4-fluorophenyl)-1,2,4-oxadiazol-3-yl)methyl)-1,2,2-trimethylcyclopentylamino)acetyl)pyrrolidine-2-carbonitrile]",–,158 to 216,79.8
"CC1(C)[C@@H](CNc2ncccc2C#N)CC[C@@]1(C)NCC(=O)N1C[C@@H](F)C[C@H]1C#N [Example 26, 2-(((1S,3R)-3-(2-((2S,4S)-2-Cyano-4-fluoropyrrolidin-1-yl)-2-oxoethylamino)-2,2,3-trimethylcyclopentyl)methylamino)nicotinonitrile]",–,96 to 99,63.2
"CC1(C)[C@@H](CN2CC[C@@H](O)C2)CC[C@@]1(C)NCC(=O)N1C[C@@H](F)C[C@H]1C#N [Example 38, (2S,4S)-4-fluoro-1-(2-((1R,3S)-3-(((R)-3-hydroxypyrrolidin-1-yl)methyl)-1,2,2-trimethylcyclopentylamino)acetyl)pyrrolidine-2-carbonitrile]",–,130 to 135,42.6
"CC1(C)[C@H](NCC(=O)N2C[C@@H](F)C[C@H]2C#N)CC[C@]1(C)c1nc(-c2ccncc2)no1 [Example 71, (2S,4S)-4-Fluoro-1-(2-((1R,3S)-2,2,3-trimethyl-3-(3-(pyridin-4-yl)-1,2,4-oxadiazol-5-yl)cyclopentylamino)acetyl)pyrrolidine-2-carbonitrile]",22.8,167 to 171,–
"CC1(C)[C@@H](CS(=O)(=O)c2ccc(S(C)(=O)=O)cc2)CC[C@@]1(C)NCC(=O)N1CCC[C@H]1C#N [Example 44, (S)-1-(2-((1R,3S)-1,2,2-Trimethyl-3-((4-(methylsulfonyl)phenylsulfonyl)methyl)cyclopentylamino)acetyl)pyrrolidine-2-carbonitrile]",582,162 to 166,–
"CC1(C)[C@@H](Cn2cc(CO)nn2)CC[C@@]1(C)NCC(=O)N1C[C@@H](F)C[C@H]1C#N [Example 15, (2S,4S)-4-Fluoro-1-(2-((1R,3S)-3-((4-(hydroxymethyl)-1H-1,2,3-triazol-1-yl)methyl)-1,2,2-trimethyleyclopentylamino)acetyl)pyrrolidine-2-carbonitrile]",–,240 to 279,60.5
"CC(C)(C)c1nc(C[C@@H]2CC[C@](C)(NCC(=O)N3C[C@@H](F)C[C@H]3C#N)C2(C)C)no1 [Example 58, (2S,4S)-1-(2-((1S,3S)-3-((5-tert-Butyl-1,2,4-oxadiazol-3-yl)methyl)-1,2,2-trimethylcyclopentylamino)acetyl)-4-fluoropyrrolidine-2-carbonitrile]",–,152 to 154,91.4
"Cc1noc([C@H]2CC[C@@](C)(NCC(=O)N3C[C@@H](F)C[C@H]3C#N)C2(C)C)n1 [Example 50, (2S,4S)-4-Fluoro-1-(2-((1R,3S)-1,2,2-trimethyl-3-(3-methyl-1,2,4-oxadiazol-5-yl)cyclopentylamino)acetyl)pyrrolidine-2-carbonitrile]",–,147 to 151,15

# The remaining lines, values ahead:
IC50 [1] [nM],melting point [°C],inhibition at 0.3 µM [1] [%],SMILES
–,108 to 112,31.9,"CC1(C)[C@@H](CN2CCCC2)CC[C@@]1(C)NCC(=O)N1C[C@@H](F)C[C@H]1C#N [Example 36, (2S,4S)-4-Fluoro-1-(2-((1R,3S)-1,2,2-trimethyl-3-(pyrrolidin-1-ylmethyl)cyclopentylamino)acetyl)pyrrolidine-2-carbonitrile]"
4.03,152 to 154,93.9,"CC1(C)[C@@H](NCC(=O)N2C[C@@H](F)C[C@H]2C#N)CC[C@@]1(C)CCCn1cncn1 [Example 83, (2S,4S)-1-(2-((1S,3R)-3-(3-(1H-1,2,4-Triazol-1-yl)propyl)-2,2,3-trimethylcyclopentylamino)acetyl)-4-fluoropyrrolidine-2-carbonitrile]"
222 ± 56.8,186 to 188,–,"CC1(C)[C@@H](Cn2cncn2)CC[C@@]1(C)NCC(=O)N1C[C@@H](F)C[C@H]1C#N [Example 1, (2S,4S)-1-(2-((1R,3S)-3-((1H-1,2,4-Triazol-1-yl)methyl)-1,2,2-trimethylcyclopentylamino)acetyl)-4-fluoropyrrolidine-2-carbonitrile]"
–,154 to 157,84.9,"CC1(C)[C@H](CNS(C)(=O)=O)CC[C@]1(C)NCC(=O)N1C[C@@H](F)C[C@H]1C#N [Example 18, N-(((1R,3S)-3-(2-((2S,4S)-2-Cyano-4-fluoropyrrolidin-1-yl)-2-oxoethylamino)-2,2,3-trimethylcyclopentyl)methyl)methanesulfonamide]"
91.4,160 to 163,–,"Cc1noc([C@@H]2CC[C@](C)(NCC(=O)N3C[C@@H](F)C[C@H]3C#N)C2(C)C)n1 [Example 51, (2S,4S)-4-Fluoro-1-(2-((1S,3R)-1,2,2-trimethyl-3-(3-methyl-1,2,4-oxadiazol-5-yl)cyclopentylamino)acetyl)pyrrolidine-2-carbonitrile]"
–,121 to 123,64.9,"Cc1nc(C[C@H]2CC[C@@](C)(NCC(=O)N3C[C@@H](F)C[C@H]3C#N)C2(C)C)no1 [Example 54, (2S,4S)-4-Fluoro-1-(2-((1R,3R)-1,2,2-trimethyl-3-((5-methyl-1,2,4-oxadiazol-3-yl)methyl)cyclopentylamino)acetyl)pyrrolidine-2-carbonitrile]"
–,82 to 85,79.2,"CC(C)c1noc([C@]2(C)CC[C@H](NCC(=O)N3C[C@@H](F)C[C@H]3C#N)C2(C)C)n1 [Example 67, (2S,4S)-4-Fluoro-1-(2-((1S,3R)-3-(3-isopropyl-1,2,4-oxadiazol-5-yl)-2,2,3-trimethylcyclopentylamino)acetyl)pyrrolidine-2-carbonitrile]"
–,193 to 195,72.7,"CC1(C)[C@@H](CNC(=O)C2CCC(F)(F)CC2)CC[C@@]1(C)NCC(=O)N1C[C@@H](F)C[C@H]1C#N [Example 22, N-(((1S,3R)-3-(2-((2S,4S)-2-Cyano-4-fluoropyrrolidin-1-yl)-2-oxoethylamino)-2,2,3-trimethylcyclopentyl)methyl)-4,4-difluorocyclohexane carboxamide]"

# From patent publication US8466145B2, “Dipeptidyl peptidase IV inhibitors” (Orchid Chemicals & Pharmaceuticals Limited, priority 2009, dated 2013)
